Patent US20060153931A1, “Prevention of flap necrosis in plastic surgery” (priority 2001, published 2006)
Ends that are not written are not given here.

Legend:
[1] = tested on: coronary artery bypass grafts; experiment: Patient with coronary artery bypass, vasospasm of the grafts (Example II); format: in vivo, human
[2] = tested on: skin flaps based on the epigastric artery and vein; experiment: Rat epigastric skin flap model, ET-1 induced pedicle vasoconstriction (Background Example 1); format: in vivo, rats
[3] = tested on: free tissue transfer of forearm tissues to the face; details: human, in vivo
[4] = tested on: pedicle flap; details: 30 minutes after lidocaine application, topical to pedicle; cited from earlier work
[5] = tested on: headache; format: in vivo; details: oral capsules each containing 100 mg aspirin and 200 mg of CX—NO
Protocol: CX—NO of Example 14 of U.S. Pat. No. 6,403,759 is formulated in a gel at 50 mM and is admixed with aspirin and the combination used to fill capsules each containing 100 mg aspirin and 200 mg of CX—NO. […] Alternatively, the CX—NO is used as or included in a coating for aspirin tablets (100 mg aspirin in a tablet), and administration orally of the coated aspirin provides the same result.

[6] = tested on: island skin flaps based upon the epigastic artery and vein; experiment: Rat island skin flap model, ET-1 induced vasoconstriction, CX—NO (Background Example 2); format: in vivo, rats; details: 0.25 ml of 3.17 mM CX—NO in DMSO, 15 min after ET-1, FIG. 1
[7] = addition of 100 μM ethyl nitrite after lidocaine (2%)
[8] = 30 min after application, 2% lidocaine or 10^−4M ENO, 15 min after ET-1, mean±SEM
[9] = topical 10^−5 M ET-1 on pedicle

## CCON=O [ENO, ethyl nitrite]
[1]; [7]
  EKG (ischemia): normalized EKG
  blood flow in grafts: restored flow
[2]; 2% lidocaine vs 10^−4M ENO
  overall effect on arterial dilation and blood flow (in words): longer lasting and greater effect
[2]; 10^−4M ENO vs 2% lidocaine
  time after application from which restoration of arterial diameter is greater compared to lidocaine (p<0.05): 10 min
  time after application from which restoration of blood flow is greater compared to lidocaine (p<0.05): 13 min
[2]; 1 min after application (lidocaine: within 1 min), 2% lidocaine or 10^−4M ENO, 15 min after ET-1, mean±SEM
  arterial diameter: 83±5 % of baseline
[2]; 2 min after application, 2% lidocaine or 10^−4M ENO, 15 min after ET-1, laser Doppler, mean±SEM
  flap blood flow: 62±6 % of baseline
[2]; 30 min after application, 2% lidocaine or 10^−4M ENO, 15 min after ET-1, laser Doppler, mean±SEM
  flap blood flow: 86±10 % of baseline
[2]; [8]
  arterial diameter: 98±5 % of baseline
  vein diameter: 75±5 % of baseline
[3]
  vasodilation and blood flow after vasospasm: vasodilation and flow is restored

## CC(N=O)(S(C)(=O)=O)S(C)(=O)=O [compound (1)]
[3]
  vasodilation and blood flow after vasospasm: same result

## CCN(CC)CC(=O)Nc1c(C)cccc1C [lidocaine, reference compound]
[1]; topical lidocaine (2%)
  blood flow in grafts: temporary but marginal blood flow
[4]
  effect on vasoconstriction / blood flow, decreasing to % of baseline: ≤ 50 % of baseline

## ET-1: Endothelin-1, applied topically to induce pedicle vasoconstriction (CSCSSLMDKECVYFCHLDIIW; ends and bridges not checked; cysteine pairing not given here; UniProt P05305 53-73, looked up) [reference compound]
[2]; [9]
  vasoconstriction of the epigastric artery: 69-76%
  vasoconstriction of the epigastric vein: 43-72%
[2]; topical 10^−5 M ET-1 on pedicle, laser Doppler
  reduction of flap blood flow to % of baseline: 35-45 % of baseline

## O— and S-nitrosylated β-cyclodextrin
[5]
  headache relief: relieved headache

## nitrosylated polythiolated cyclodextrin [CX—NO]
[6]
  arterial diameter as a percentage of baseline: increase
  vein diameter as a percentage of baseline: increase
[6]; laser Doppler
  blood flow in small vessels as a percentage of baseline flow: increase
